Assay results published in patent US5552267A, “Solution for prolonged organ preservation” (priority 1994, dated 1996).
Entries after “also recorded” stand apart in the source; their conditions may differ.

Tests used:
heart [1] = experiment: heterotopic rat cardiac transplant, cAMP series, graft survival/score; format: in vivo, rat (male Sprague-Dawley); conditions: 12 h in LR
From the text: Preservation solutions included lactated Ringer's (LR) solution Baxter, Edison, N.J.), or LR supplemented with rolipram ZK 62 711, Schering AG, Berlin, Germany), indolidan LY195115, Lilly Research Laboratories, Indianapolis, Ind.), sodium butyrate, 8-bromoadenosine, 8-bromoadenosine 3',5'monophosphate (8-Br-cAMP; Sigma Chemical Co., St. Louis, Mo.), the Rp -isomer of adenosine 3',5'monophosphorothioate (Rp -cAMPS; Biolog, La Jolla, Calif.), the Sp isomer of adenosine 3',5'monophosphorothioate (Sp -cAMPS; Biolog), and N^6,O^2' -dibutyryl adenosine 3',5'monophosphate sodium (db-cAMP; Aldrich, Milwaukee, Wis.). Components were combined within 4 hrs of donor cardiectomy, and preservation solutions were kept at 4° C. University of Wisconsin solution (UW)(2-4 was purchased from Dupont (Wilmington, Del.).
Donor Cardiectomy. Male Sprague-Dawley rats (350-450 grams, Camm Research, Wayne, N.J.) were anesthetized, heparinized (1000 units of heparin given intravenously), and the donor heart removed in the following manner; a midline incision was performed, followed by rapid cardioplegic arrest with 5 ml of cold (4° C.), high potassium solution (NACl, 0.9%, and KCl, 40 mEq/L). The heart was maintained at 4° C. throughout the harvest procedure by the application of a cold saline soaked gauze over its surface. […] The aortic root was flushed with ≈15 ml of the cold preservation solution until the coronary arteries became visibly clear, and the heart remained in the cold storage solution for the indicated duration until the time of transplantation.
Heterotopic Transplant. The same breed/size of rat was used, and similarly anesthetized, but not given heparin. A midline abdominal incision was made, and the infrarenal aorta and vena cava were occluded with a side-biting vascular clamp and longitudinal incisions were made in each vessel. The donor heart was removed from the preservation solution and kept moist with saline-soaked gauze. […] Blood flow was restored to the graft (by removal of the clamp) exactly one hour after removal from the cold preservation solution. […] Ten minutes after removal of the cross-clamp, an electrocardiogram was taken (Grass Polygraph, Quincy, Mass.) and the heart was judged by the same blinded investigators throughout based on the presence/absence of regular contractions and a transplant score (0-5, worst-best, respectively) employing the following criteria: contraction (poor=0, average=1, vigorous=2), tissue turgor (hard=0, average=1, soft=2), and color (dusky=0, pink=1). […] The heterotopic cardiac transplant experiments performed in these studies were done by a single surgeon after establishment of this model and acquisition of surgical expertise, with control and experimental groups interspersed throughout the study period to prevent a time-dependent bias pertaining to surgical skills.
Statistics. Graft survival data and transplant scores were analyzed using the Kruskal-Wallis non-parametric analysis of variance (38). Comparisons of individual treatments were performed using the procedure described by Dunn (39). In addition, the effect of db-cAMP on the time-course of graft failure was quantified by multivariate logistic regression. Graft myeloperoxidase data, microsphere data, and cAMP/adenylate cyclase/phosphodiesterase data from experiments with cultured vascular smooth muscle cells were analyzed by t-tests when 2 treatments were performed or by analysis of variance when 3 or more treatments were performed. In the latter case, post-hoc comparison of treatment groups were tested using Tukey's procedure. Values are expressed as means ±SEM, with a p <0.05 considered statistically significant.

heart [2] = experiment: heterotopic rat heart transplant model, First Series Experiment One (heart survival rate, heart transplant index); format: in vivo, rat (male Sprague-Dawley); conditions: in place of db cAMP, 24 hr
HUVECs / platelets = experiment: NO by inhibition of thrombin-induced platelet aggregation and serotonin release by ECs; format: cell-based, human; conditions: normoxic ECs (hemoglobin); hypoxia 16 h + reoxygenated ECs (SOD, BHT)
Protocol: Radiolabelled serotonin (^14 C-5-hydroxytryptamine, Amersham, Arlington Heights, Ill.) was incorporated into the platelets by adding 0.5 μCi during the blood collection process. Inhibition of cyclooxygenase was confirmed by the absence of aggregation to 1 mM sodium arachidonate.
HUVECs from fresh human umbilical veins were isolated and grown according to previously published methods^12, and used between the 3rd and 4th passages. HUVEC cyclooxygenase was inhibited with acetylsalicylic acid (1 mmol/L in M199 medium, incubated for 30 minutes at 37° C., and then washed twice with M199 to remove residual acetylsalicylic acid) immediately prior to collagenase digestion. […] An hypoxic environment was administered by placing cells in a specially designed airtight chamber (Coy Laboratory Products, Ann Arbor, Mich.) with a normobaric environment comprised of 90% N2, 5% H2, 5% CO2, and 0% O2. pO2 s of 15 Torr in the culture medium were achieved by the use of a palladium catalyst in the chamber to reduce any residual O2. All manipulations, including centrifugation and washing of cells (up to the final aggregometry, or reoxygenation phases as described), were performed within the hypoxia chamber. Reoxygenation was accomplished by removing an aliquot of washed and counted HUVECs in suspension to room air for the indicated duration.
Platelets were challenged with graded doses of α-thrombin (Sigma) to determine the concentration that caused maximal platelet aggregation (0.3 u/mL in all cases), and this dose was used for all further studies. […] Interference with light absorption was measured for 3 minutes to obtain platelet aggregation curves, after which the cuvette contents were placed on ice, centrifuged at 5,000 rpm for 5 minutes at 4° C., and 200 μL of supernatant was recovered and counted in a liquid scintillation counter to quantify ^14 C-serotonin release. […] Results are expressed as both aggregometry curves and as % maximal serotonin release as defined by thrombin challenge in the absence of ECs.

[3] = tested on: cAMP-dependent protein kinase; conditions: cited from earlier work
[4] = biological target: cGMP-dependent protein kinase; conditions: cited from earlier work
lung = experiment: orthotopic rat left lung transplantation, cGMP series (hemodynamics, oxygenation, recipient survival); format: in vivo, rat (male Lewis); conditions: 6 h in EC
Protocol: Orthotopic rat left lung transplantation was accomplished using inbred male Lewis rats (250-300 gms), using a modification of a previously described technique^29. The donor rat was anesthetized and heparinized (500 U intravenously), and endotracheal intubation was performed by inserting a 16 gauge angiocatheter into the trachea using blunt cervical dissection, after which the rat was ventilated with room air at a constant rate (100 breaths/minute) and tidal volume (2.5 ml), using a Harvard rodent ventilator. […] The pulmonary artery (PA) and pulmonary vein (PV) were divided, the bronchus ligated with the lung partially inflated and then divided, and the lung removed. The vascular stumps were each pulled through a small plastic cylinder, and a lip of vessel was turned back around the edge and secured in place with a suture to form a "cuff." A small plastic cylinder was inserted into the bronchial stump and secured, and the lung was then wrapped in gauze and submerged in cold preservation solution for the desired interval.
The recipient rat (gender/size/strain-matched) was similarly anesthetized and intubated (ventilated with 100% oxygen), but not heparinized. A left thoracotomy was performed, the hilum was dissected, and the left bronchus, PA, and PV were isolated, cross-clamped, divided and the native lung was removed from the field. The PA and PV stumps were rinsed with heparinized saline to remove any clot. The donor lung was brought onto the surgical field, and the cylinder (bronchus) and cuffs (PA and PV) were connected rapidly to their respective structures with a simple staying suture. This cuff technique permitted rapid approximation of donor and recipient tissues with no contact of a foreign substance with the luminal vascular surface. The hilar cross-clamp was released, re-establishing blood flow, and the bronchus tie was removed, enabling gas exchange. A snare was then passed around the right PA, and a Millar catheter (2F; Millar Instruments,Houston, Tex.) was introduced through a small hole (surrounded by a pursestring) into the main PA; similarly, a Millar catheter was introduced into the left atrium (LA). A flow probe (Transonics, Ithaca, N.Y.) was then placed around the main PA. Arterial blood gas sampling performed via the left femoral artery.
Online hemodynamic monitoring was accomplished using MacLab and a Macintosh IIci computer. The hemodynamic parameters that were measured included PA pressure (mm Hg), blood flow (ml/min), LA pressure (mm Hg), as well as arterial oxygen tension (mm Hg) during inspiration of 100% oxygen; pO2 was analyzed with a model ABL-2 dissolved gas analyzer (Radiometer, Copenhagen, Denmark). Pulmonary vascular resistances (PVRs) were calculated as [mean PA pressure-LA pressure]/PA flow. The native lung supported the recipient during the period of warm ischemia (the period during which the donor lung was removed from cold preservation until the time of reperfusion, <10 min. in all instances), but immediately following rapid hemodynamic instrumentation and acquisition of baseline measurements, the native (right) PA was then ligated, and serial measurements (representative solely of the transplanted lung) were taken every five minutes for 30 minutes. Because the native lung was effectively removed from the circulation by ligation of the right PA, these measurements represent function of the transplanted lung. Recipient death was identified by the cessation of cardiac mechanical activity observed through the thoracotomy.
Preservation solutions were freshly made and coded by a technician not otherwise involved in the experiments, according to a general plan which included both control and experimental groups. […]

[5] = tested on: myocardial infarct / neutrophils; conditions: canine ischemia/reperfusion; cited from earlier work
[6] = tested on: nitric oxide at lung surface; experiment: in vivo pulmonary NO with porphyrinic microsensor; set-up: species or system rat
Protocol: Measurements of nitric oxide concentrations in vivo were performed with a two electrode system using a porphyrinic sensor as a working electrode and a platinum wire as an auxiliary/reference electrode. The porphyrinic sensor with a flexible base was lowered onto the exposed surface of the lung using a micromanipulator. A small piezoelectric signal (mechanically generated current) was used to indicate that the sensor had made contact with the tissue surface. NO measurements were begun once the flexible sensor assumed an L-shaped configuration on the tissue surface and the platinum wire was connected to adjacent tissue. Continous amperometric (current-time) measurements were obtained at a constant potential of 0.68 V, during the period of warm ischemia (after the lung was sewn in place but not yet reperfused) and continously as the vascular cross-clamp was released and reperfusion initiated. Topical application of the calcium ionophore (A23187, 9.5 μM; Sigma) and superoxide dismutase (100 U/ml; Sigma) was applied as monitoring was continued.

[7] = tested on: nitric oxide production in heart; experiment: direct measurement of coronary vascular and endocardial NO with porphyrinic microsensor; set-up: species or system rat; conditions: transplanted hearts
Protocol: Direct measurement of coronary vascular and endocardial nitric oxide synthesis were made with a porphyrinic microsensor^13 using differential pulse voltammetry or amperometry. Rat hearts were explanted and preserved as described above, and studied fresh (no preservation/transplantation) or after hypothermic preservation in lactated Ringer's (LR) solution, heterotopic transplantation, and 10 minutes of reperfusion. The coronary vasculature was flushed free of blood with LR followed by 4 ml of LR supplemented with L-Arg (2 mM) and bradykinin ([…], Sigma), which was recycled (1 ml/min) through the coronary vasculature by flushing down the cross-clamped aortic root. Aliquots of perfusate were immediately transferred to an anaerobic environment for measurements and compared to an aqueous nitric oxide reference. Differential pulse voltammograms were obtained using a sensor (working electrode), saturated calomel electrode reference, and platinum wire-auxiliary electrode, with a pulse amplitude of 40 mV. Endocardial NO was measured by implanting the sensor in the septal endocardium of a freshly explanted or preserved/transplanted heart, and after the baseline stabilization, […] bradykinin was applied and NO release continuously monitored by amperometry at constant potential of 0.63 V.

[8] = tested on: nitric oxide in lung tissue; experiment: ex vivo pulmonary NO with porphyrinic microsensor; set-up: species or system rat
Protocol: Direct measurement of pulmonary NO production was made using a porphyrinic microsensor^30 and differential pulse voltammetry. Pieces of rat lung of equal weight (40±4 mg) were harvested following 6 hrs of hypothermic preservation in LR alone, or 6 hrs of preservation followed by orthotopic transplantation and 30 minutes of reperfusion as described above. These pieces were placed in a vial containing 2 mL of LR and equilibrated to 37° C. under ambient conditions. Differential pulse voltammograms (current [proportional to NO concentration] versus potential) with pulse amplitude of 40 mV were obtained with a sensor placed on the tissue surface. A saturated calomel reference electrode (SCE) and platinum wire (auxiliary electrode) were immersed in the LR solution. The sensor is a working electrode at which oxidation of NO occurs, resulting in an electric current (which flows between working and auxiliary electrodes). The reference electrode is used to monitor the potential of the working electrode. NO concentrations measured ex vivo have been normalized, and are reported as per 40 mg of tissue. An aqueous NO solution prepared as previously described^31 was used to calibrate the sensor.

[9] = lung preserved 6 h in LR, no reimplantation

## Nc1ncnc2c1nc(Br)n2[C@@H]1O[C@H](CO)[C@@H](O)[C@H]1O [8-bromoadenosine]
Heart [1]
  effect on cardiac preservation: ineffective
Heart [2]
  beneficial effect on cardiac preservation: no such beneficial effect

## Cc1cc(C(C)(C)C)c(O)c(C(C)(C)C)c1 [BHT, butylated hydroxytoluene]
HUVECs / platelets
  effect on NO / platelet inhibition by ECs: restore NO levels

## Nc1ncnc2c1ncn2[C@@H]1O[C@@H]2CO[P@@](O)(=S)O[C@H]2[C@H]1O [Rp -cAMPS, Rp isomer of adenosine 3'5'monophosphorothioate]
[3]
  effect on cAMP-dependent protein kinase: nonhydrolyzable competitive PKA antagonist
Heart [1]
  effect on cardiac preservation: prevented preservation enhancement induced by 8-bromo-cAMP; also recorded: abolished the salutory effect of 8-Br-cAMP on preservation

## Nc1nc2c(nc(Sc3ccc(Cl)cc3)n2[C@@H]2O[C@@H]3CO[P@@](O)(=S)O[C@H]3[C@H]2O)c(=O)[nH]1 [Rp-8-pCPT-cGMPS, R isomer of 8-(4-chlorophenylthio)guanosine-3'5'-cyclic monophosphorothioate]
[4]; cGMP-dependent protein kinase, personal communication
  Ki: 0.5 µM
[3]; cAMP-dependent protein kinase, personal communication
  Ki: 8.3 µM
lung
  effect on lung preservation: block the beneficial effects of 8-Br-cGMP

## Nc1ncnc2c1ncn2[C@@H]1O[C@@H]2CO[P@](O)(=S)O[C@H]2[C@H]1O [Sp -cAMPS, Sp isomer of adenosine 3'5'monophosphorothioate]
[4]
  effect on cGMP-dependent protein kinase: antagonist of the cGMP-dependent protein kinase
[3]
  effect on cAMP-dependent protein kinase: PKA agonist
Heart [1]
  effect on cardiac preservation: enhanced preservation

## CCCC(=O)[O-].[Na+] [butyrate, sodium butyrate]
Heart [1]
  effect on cardiac preservation: consistently failed
Heart [2]
  beneficial effect on cardiac preservation: no such beneficial effect

## COc1ccc(C2CNC(=O)C2)cc1OC1CCCC1 (stereo not shown) [rolipram]
[5]
  myocardial infarct size: does not limit myocardial infarct size
  neutrophil superoxide production in vitro / no-reflow: significantly reduces neutrophil production of superoxide in vitro
Heart [1]
  effect on cardiac preservation: uniformly enhanced preservation

## SOD: bovine erythrocyte superoxide dismutase
[6]; normal lung
  increase in NO with SOD: 10%
  local NO concentration with SOD: 720 ± 110 nM
[6]; preserved 6 h in LR, transplanted, from ~25 nM
  NO level with SOD during reperfusion: ~ 40 nM
[7]
  effect on NO levels: levels augmented
[8]; lung preserved 6 h in LR and reimplanted
  fold increase in detectable NO with SOD: ~ 25 fold
[8]; [9]
  NO concentration with SOD: 300 nM
  increase in NO with SOD: 50%
HUVECs / platelets
  effect on NO / platelet inhibition by ECs: restore NO levels

## hemoglobin
HUVECs / platelets
  effect on NO / platelet inhibition by ECs: blocked
